Calls of active or inactive are those of the source.
Experiments:
[1] = target: T1, Zinc finger protein mex-5 (Caenorhabditis elegans, UniProt Q9XUB2); experiment: MEX-5/TCR-2 RNA interaction inhibitors, dose response, biochemical, C. elegans, fluorescence polarization (AID 1960)
T1 sequence (Q9XUB2 whole entry): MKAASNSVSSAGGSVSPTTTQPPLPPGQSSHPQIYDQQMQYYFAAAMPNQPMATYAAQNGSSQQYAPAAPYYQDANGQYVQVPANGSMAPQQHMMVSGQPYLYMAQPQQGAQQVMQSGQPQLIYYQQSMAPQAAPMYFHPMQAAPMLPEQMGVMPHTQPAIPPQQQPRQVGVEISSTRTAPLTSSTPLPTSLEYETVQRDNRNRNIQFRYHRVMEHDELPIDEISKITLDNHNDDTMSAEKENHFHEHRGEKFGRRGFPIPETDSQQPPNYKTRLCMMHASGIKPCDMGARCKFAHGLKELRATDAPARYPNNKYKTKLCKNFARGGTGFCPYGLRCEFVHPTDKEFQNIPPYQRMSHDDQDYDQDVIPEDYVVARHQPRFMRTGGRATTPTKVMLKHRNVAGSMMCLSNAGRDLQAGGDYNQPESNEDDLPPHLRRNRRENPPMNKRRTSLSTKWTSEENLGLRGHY

[2] = target: T2, Dual specificity protein phosphatase 6 (Rattus norvegicus, UniProt Q64346); experiment: MKP-3 phosphatase inhibitors, primary screen, biochemical, rat enzyme, in vitro (AID 425)
T2 sequence (Q64346 whole entry): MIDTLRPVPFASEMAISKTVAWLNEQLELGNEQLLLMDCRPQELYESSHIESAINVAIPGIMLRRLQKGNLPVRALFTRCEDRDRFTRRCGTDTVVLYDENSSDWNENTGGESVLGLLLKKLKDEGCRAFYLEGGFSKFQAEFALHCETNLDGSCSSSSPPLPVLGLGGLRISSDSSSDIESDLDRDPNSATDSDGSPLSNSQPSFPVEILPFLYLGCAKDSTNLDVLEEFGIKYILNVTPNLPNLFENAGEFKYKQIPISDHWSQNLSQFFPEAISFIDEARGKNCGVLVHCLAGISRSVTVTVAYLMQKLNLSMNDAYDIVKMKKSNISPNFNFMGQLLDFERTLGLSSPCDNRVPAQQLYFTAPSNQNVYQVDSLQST

[3] = target: Dual specificity protein phosphatase 3 (Homo sapiens, UniProt P51452); experiment: VHR1 phosphatase inhibitors, primary screen, biochemical, absorbance, uHTS (AID 1654)
Sequence of Dual specificity protein phosphatase 3 (P51452 whole entry): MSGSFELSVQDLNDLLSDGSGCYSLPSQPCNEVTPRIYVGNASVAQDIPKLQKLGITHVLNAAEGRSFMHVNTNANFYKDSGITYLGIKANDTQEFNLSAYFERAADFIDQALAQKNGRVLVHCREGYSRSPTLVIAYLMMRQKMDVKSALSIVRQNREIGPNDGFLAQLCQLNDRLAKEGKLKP

Troponin, cardiac muscle = Troponin, cardiac muscle (Homo sapiens, UniProt P19429+P45379+P63316); experiment: inhibitors of cardiac thin filament calcium sensitivity, dose response, biochemical, fluorescence, cardiac regulated thin filaments, triplicate IC50 (AID 504742); assay type: protein-complex assay
[4] = target: T3, 1-phosphatidylinositol 4,5-bisphosphate phosphodiesterase beta-3 (Homo sapiens, UniProt Q01970); experiment: Fluorescence-based biochemical high throughput dose response assay to identify inhibitors of phospholipase C isozymes (PLC-B3).
T3 sequence (Q01970 whole entry): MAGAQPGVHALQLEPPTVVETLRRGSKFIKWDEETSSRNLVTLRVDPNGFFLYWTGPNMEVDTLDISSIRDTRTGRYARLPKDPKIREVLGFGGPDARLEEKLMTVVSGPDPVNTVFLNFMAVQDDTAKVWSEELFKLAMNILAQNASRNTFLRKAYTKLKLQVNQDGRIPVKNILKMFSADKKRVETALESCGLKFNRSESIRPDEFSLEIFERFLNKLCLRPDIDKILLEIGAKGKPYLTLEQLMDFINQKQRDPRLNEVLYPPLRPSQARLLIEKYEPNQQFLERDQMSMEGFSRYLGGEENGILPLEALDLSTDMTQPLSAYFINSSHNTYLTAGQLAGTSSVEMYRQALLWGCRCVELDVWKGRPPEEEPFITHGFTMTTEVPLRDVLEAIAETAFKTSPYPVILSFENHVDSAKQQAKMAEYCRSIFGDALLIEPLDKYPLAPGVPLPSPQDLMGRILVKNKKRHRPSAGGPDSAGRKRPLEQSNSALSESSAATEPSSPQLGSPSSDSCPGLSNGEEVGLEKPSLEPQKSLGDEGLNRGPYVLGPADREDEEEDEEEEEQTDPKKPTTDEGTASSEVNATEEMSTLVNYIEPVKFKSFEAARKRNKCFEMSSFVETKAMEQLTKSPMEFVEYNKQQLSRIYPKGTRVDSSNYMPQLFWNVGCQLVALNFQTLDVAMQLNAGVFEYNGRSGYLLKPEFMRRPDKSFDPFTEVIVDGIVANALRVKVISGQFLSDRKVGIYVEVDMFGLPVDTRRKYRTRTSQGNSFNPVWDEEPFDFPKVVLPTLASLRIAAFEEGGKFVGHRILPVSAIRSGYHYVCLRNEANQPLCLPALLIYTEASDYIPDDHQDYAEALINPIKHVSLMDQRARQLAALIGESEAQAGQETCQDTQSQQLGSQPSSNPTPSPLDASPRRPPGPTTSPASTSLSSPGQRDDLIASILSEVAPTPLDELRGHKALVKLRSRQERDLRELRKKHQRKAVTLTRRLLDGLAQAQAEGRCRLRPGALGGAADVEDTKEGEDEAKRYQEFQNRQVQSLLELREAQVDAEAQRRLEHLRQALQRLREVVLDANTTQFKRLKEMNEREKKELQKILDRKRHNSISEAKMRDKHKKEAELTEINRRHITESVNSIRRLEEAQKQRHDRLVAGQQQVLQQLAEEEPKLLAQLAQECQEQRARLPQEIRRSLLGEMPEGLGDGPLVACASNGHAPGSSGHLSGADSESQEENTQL

[5] = target: T4, RNA-binding protein pos-1 (Caenorhabditis elegans, UniProt G5EF15); experiment: inhibitors of POS-1/mex-3 RNA binding, dose response, biochemical, fluorescence polarization (AID 1964);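 note: purified POS-1 fused to maltose binding protein made in E. coli; potency of compounds blocking POS-1 binding to fluorescent RNA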
T4 sequence (G5EF15 whole entry): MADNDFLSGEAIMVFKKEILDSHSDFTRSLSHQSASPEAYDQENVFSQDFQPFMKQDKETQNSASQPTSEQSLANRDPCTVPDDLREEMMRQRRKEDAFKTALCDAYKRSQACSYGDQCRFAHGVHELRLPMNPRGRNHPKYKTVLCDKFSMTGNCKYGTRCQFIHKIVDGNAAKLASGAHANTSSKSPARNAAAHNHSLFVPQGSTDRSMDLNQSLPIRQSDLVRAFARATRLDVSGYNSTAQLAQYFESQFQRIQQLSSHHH

Caspase-6 = Caspase-6 (Homo sapiens, UniProt P55212); experiment: human caspase-6 inhibitors, dose response, biochemical, VEID-R110 fluorescence, cherry-pick (AID 720632)
Sequence of Caspase-6 (P55212 24-179 limits assumed): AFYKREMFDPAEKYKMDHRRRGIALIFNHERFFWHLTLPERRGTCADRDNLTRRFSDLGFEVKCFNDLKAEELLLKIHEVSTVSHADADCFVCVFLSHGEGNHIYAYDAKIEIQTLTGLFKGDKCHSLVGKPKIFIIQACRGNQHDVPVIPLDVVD
Sequence of Caspase-6 (P55212 194-293 limits assumed): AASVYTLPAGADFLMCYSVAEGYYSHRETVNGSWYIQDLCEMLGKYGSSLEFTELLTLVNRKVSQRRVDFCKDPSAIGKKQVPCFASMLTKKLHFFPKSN

Caspase-8 = Caspase-8 (Homo sapiens, UniProt Q14790); experiment: caspase-8 inhibition counter-screen, dose response, selectivity assay for caspase-6 inhibitor project, biochemical, Z-IETD-R110 fluorescence, cherry-picked samples (AID 743294)
Sequence of Caspase-8 (Q14790 217-374 limits assumed): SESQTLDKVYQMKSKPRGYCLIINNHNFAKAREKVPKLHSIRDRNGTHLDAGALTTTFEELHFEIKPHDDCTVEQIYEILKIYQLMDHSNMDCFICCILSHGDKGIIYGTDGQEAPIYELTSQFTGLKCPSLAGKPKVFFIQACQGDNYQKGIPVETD
Sequence of Caspase-8 (Q14790 385-479 limits assumed): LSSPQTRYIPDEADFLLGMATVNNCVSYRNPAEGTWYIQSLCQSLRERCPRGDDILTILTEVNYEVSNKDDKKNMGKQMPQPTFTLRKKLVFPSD

[6] = target: Dual specificity tyrosine-phosphorylation-regulated kinase 1A (Rattus norvegicus, UniProt Q63470); assay type: biochemical, Homo sapiens
Genome polyprotein = Genome polyprotein (dengue virus type 2, UniProt P29990); experiment: Dengue-2 NS5 methyltransferase inhibitors, primary screen, biochemical, confirmation dose response (AID 588689); assay type: functional
Sequence of Genome polyprotein (P29990 2492-3391 limits assumed): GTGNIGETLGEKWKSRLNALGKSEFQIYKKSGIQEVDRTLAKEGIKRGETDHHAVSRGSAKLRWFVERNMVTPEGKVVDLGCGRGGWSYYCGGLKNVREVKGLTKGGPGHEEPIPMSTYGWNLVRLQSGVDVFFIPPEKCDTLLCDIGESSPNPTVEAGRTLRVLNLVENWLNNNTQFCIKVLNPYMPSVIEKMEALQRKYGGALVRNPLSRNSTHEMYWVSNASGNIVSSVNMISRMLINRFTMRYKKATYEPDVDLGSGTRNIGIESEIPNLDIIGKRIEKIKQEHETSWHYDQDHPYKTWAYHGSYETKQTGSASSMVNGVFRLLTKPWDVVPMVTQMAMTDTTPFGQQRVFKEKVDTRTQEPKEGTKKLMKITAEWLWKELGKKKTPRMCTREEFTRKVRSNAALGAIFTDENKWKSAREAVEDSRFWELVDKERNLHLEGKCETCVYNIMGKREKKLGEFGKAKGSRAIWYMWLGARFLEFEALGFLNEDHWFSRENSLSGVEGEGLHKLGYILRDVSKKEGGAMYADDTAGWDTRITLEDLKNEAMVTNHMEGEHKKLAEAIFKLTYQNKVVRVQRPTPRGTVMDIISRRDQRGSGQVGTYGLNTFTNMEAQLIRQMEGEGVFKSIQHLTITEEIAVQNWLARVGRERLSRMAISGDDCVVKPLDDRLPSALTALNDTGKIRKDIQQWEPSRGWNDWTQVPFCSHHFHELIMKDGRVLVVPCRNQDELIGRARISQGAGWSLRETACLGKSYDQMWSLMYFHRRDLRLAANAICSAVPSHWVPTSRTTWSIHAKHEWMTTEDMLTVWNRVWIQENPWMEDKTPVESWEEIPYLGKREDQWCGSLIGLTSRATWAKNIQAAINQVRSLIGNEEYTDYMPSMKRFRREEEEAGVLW

Compound: O=c1c(O)cccc2cc(O)c(O)c(O)c12 [PURPUROGALLIN]
- EC50 [1]: 0.152 µM (active)
- IC50 [2]: 29.2 µM (active)
- IC50 [3]: < 0.98 µM (inactive)
- IC50 (Troponin, cardiac muscle): 3.62 µM (active)
- IC50 [4]: > 123 µM (inactive)
- EC50 [5]: 6.57 µM (active)
- AC50 (Caspase-6): 0.0804 µM (active)
- AC50 (Caspase-8): > 70 µM (inactive)
- AC50 [6]: 1.61 µM (active)
- IC50 (Genome polyprotein): 12.2 µM (active)

— ChEMBL document CHEMBL1201862, “PubChem BioAssay data set” (2004)
